Measurements reported in patent publication US9510593B2, “S-benzylthiouracil compounds and methods of enhancing plant root growth” (Valent BioSciences Corporation, priority 2014, dated 2016).
Entries after “also recorded” stand apart in the source; their conditions may differ. Read-outs that look alike come from different tables or passages of the source.

Tests used:
Format in all cases: in vivo
rice = experiment: Rice pouch assay: growth of primary root and shoot; conditions: for change in vivo at 10 ppm: Oryza sativa, 144 h, read-out: Percent Change in Primary Root Length in Rice; for change in vivo at 10 ppm / Percent Change in Primary Root Length of Rice: 10 ppm (10 mg/L), vs control; for Shoot Length: control 1.7; for Effect on rice root growth, in words: rice pouch assay, compared to control; for Percent Change in Primary Root Length of Rice: linkage changes
Procedure: Seeds were placed in germination pouches consisting of germination paper as an insert in a gas-permeable 16×14 cm plastic pouch (CYG Pouch; Mega International, St. Paul, Minn.). In pouch solution evaluation, S-Benzylthiouracil compounds or their salts were dissolved in a small volume of DMSO and added to sterile water with a maximum of 0.5% v/v DMSO at final dilution. The S-Benzylthiouracil solution was subsequently pipetted into the growth pouch, followed by the addition of seeds of the crop being tested. The pouches were arranged in a randomized complete block design in growth racks and placed in 19-liter polycarbonate food storage containers (Rubbermaid Commercial Products, Winchester, Va.). The sealed containers were held in an upright growth cabinet maintained at 25 C with a 12 hour light: 12 hour dark photoperiod. For rice, plants were harvested at 6 d, while in mungbean and corn, the plants were harvested at 4 d post sowing. Measurements were performed on the primary root and shoot of each seedling. The growth of the primary root of rice was examined in the pouch assay system. The results of the testing, presented as percent change in root length across all S-Benzylthiouracil compounds, are shown below.

mungbean = experiment: Mungbean pouch assay: growth of primary root and shoot; conditions: for change in vivo at 10 ppm: 96 h, read-out: Percent Change in Primary Root Length of Mungbean; for change in vivo at 10 ppm / Percent Change in Primary Root Length: 10 ppm (10 mg/L); for Percent Change in Primary Root Length: mungbean, linkage changes
Procedure: Seeds were placed in germination pouches consisting of germination paper as an insert in a gas-permeable 16×14 cm plastic pouch (CYG Pouch; Mega International, St. Paul, Minn.). In pouch solution evaluation, S-Benzylthiouracil compounds or their salts were dissolved in a small volume of DMSO and added to sterile water with a maximum of 0.5% v/v DMSO at final dilution. The S-Benzylthiouracil solution was subsequently pipetted into the growth pouch, followed by the addition of seeds of the crop being tested. The pouches were arranged in a randomized complete block design in growth racks and placed in 19-liter polycarbonate food storage containers (Rubbermaid Commercial Products, Winchester, Va.). The sealed containers were held in an upright growth cabinet maintained at 25 C with a 12 hour light: 12 hour dark photoperiod. For rice, plants were harvested at 6 d, while in mungbean and corn, the plants were harvested at 4 d post sowing. Measurements were performed on the primary root and shoot of each seedling. The growth of the primary root of mungbean was examined in the pouch assay system. The results of the testing, presented as percent change in root length across all the free S-Benzylthiouracil compounds is shown below. The following S-Benzylthiouracil compounds have benzyl substitutions as defined in Table 11 below.

tomato = experiment: Tomato petri plate assay; conditions: Solanum lycopersicum, 144 h; 10 ppm; after 6 days of continuous exposure; read-out: Percent Increase (percent change in primary tomato root length)
Procedure: For tomato, the plants were grown in disposable (150 mm) sterile plastic petri plates (Falcon, BD Biosciences, Franklin Lakes, N.J.). In the tomato assay, a single sheet of Whatman #1 filter paper was placed at the bottom of the plate, 15 tomato seeds were added, and 10 mL of treatment solution was added. At the end of 6 d, the 10 largest seedlings were selected for measurement from each plate. In each study, a minimum of 3 replicate plates were used. In tomato, several S-Benzylthiouracil compounds were tested to determine the effects on root growth.

SMILES: [K+].[O-]c1ccnc(SCc2cccc(F)c2)n1 [Compound 1 K+ salt, Potassium Salt of S-(3-Fluorobenzyl)-2-thiouracil]
- Root Length (rice; 10 mg/liter, 6 days after sowing, untreated control 9.67): 11.03 cm
- Root Length (rice; 30 mg/liter, 6 days after sowing, untreated control 9.67): 9.71 cm

SMILES: [Na+].[O-]c1ccnc(SCc2ccccc2)n1 [Compound 2 Na+ salt, Sodium Salt of S-Benzyl-2-thiouracil]
- Root Length (rice; 10 mg/liter, 6 days after sowing, untreated control 10.50): 12.35 cm
- Root Length (rice; 30 mg/liter, 6 days after sowing, untreated control 10.50): 13.03 cm

SMILES: Oc1ccnc(SCc2ccccc2F)n1 [Compound 4]
- change in vivo at 10 ppm (mungbean; benzyl ring substitutions): 17.7%
- change in vivo at 10 ppm (rice; benzyl ring substitutions): 13.5%

SMILES: Oc1ccnc(SCc2cc(F)cc(F)c2)n1 [Compound 6, S-(3,5-Difluorobenzyl)-2-thiouracil]
- change in vivo at 10 ppm (mungbean; benzyl ring substitutions): 3%
- change in vivo at 10 ppm (rice; benzyl ring substitutions): 8.8%

SMILES: COc1cccc(CSc2nccc(O)n2)c1 [Compound 7]
- change in vivo at 10 ppm (mungbean; benzyl ring substitutions): 17.5%
- change in vivo at 10 ppm (rice; benzyl ring substitutions): 2.5%

SMILES: COc1ccc(CSc2nccc(O)n2)cc1 [Compound 8]
- change in vivo at 10 ppm (rice; benzyl ring substitutions): 0.4%

SMILES: Cc1cccc(CSc2nccc(O)n2)c1 [Compound 9]
- change in vivo at 10 ppm (mungbean; benzyl ring substitutions): 5.9%
- change in vivo at 10 ppm (rice; benzyl ring substitutions): -2.3%

SMILES: CCOC(=O)c1cnc(SCc2cccc(F)c2)nc1O [Compound 12, S-(3-Fluorobenzyl)-5-carboxyethyl-2-thiouracil]
- change in vivo at 10 ppm (mungbean; uracil moiety substitutions): -20.1%
- Effect on mungbean root (and shoot) growth, in words (mungbean; mungbean pouch assay): significant negative effect on root growth
- change in vivo at 10 ppm (rice; uracil moiety substitutions): 9.5%

SMILES: Cc1cc(O)nc(SCc2ccccc2C)n1 [Compound 14]
- change in vivo at 10 ppm (mungbean; uracil moiety substitutions): 15.4%
- change in vivo at 10 ppm (rice; uracil moiety substitutions): 8.6%

SMILES: Fc1cccc(CSc2ncccn2)c1 [Compound 17]
- change in vivo at 10 ppm (mungbean; uracil moiety substitutions): 11.1%
- change in vivo at 10 ppm (rice; uracil moiety substitutions): 5.1%

SMILES: Nc1ccnc(SCc2cccc(F)c2)n1 [Compound 19]
- change in vivo at 10 ppm (rice; uracil moiety substitutions): 2.9%

SMILES: Cc1cc(O)nc(SCc2ccccc2Cl)n1 [Compound 20]
- change in vivo at 10 ppm (mungbean; uracil moiety substitutions): 8.2%
- Shoot Length (rice; 1 ppm, 6 days after planting): 1.4 cm
- Root Length (rice; 1 ppm, 6 days after planting, control 5.4): 5.3 cm
- Shoot Length (rice; 2 ppm, 6 days after planting): 1.3 cm
- Root Length (rice; 2 ppm, 6 days after planting, control 5.4): 4.7 cm
- Shoot Length (rice; 5 ppm, 6 days after planting): 1.2 cm
- Root Length (rice; 5 ppm, 6 days after planting, control 5.4): 4.6 cm
- Shoot Length (rice; 10 ppm, 6 days after planting): 0.9 cm
- Root Length (rice; 10 ppm, 6 days after planting, control 5.4): 3.8 cm
- change in vivo at 10 ppm (rice; uracil moiety substitutions): -6.9%
- Effect on rice root growth, in words (rice): significantly negative effect; also recorded: dose-dependent reductions in root and shoot growth

SMILES: Oc1ccnc(OCc2cccc(F)c2)n1 [Compound 21, 2-O-(3-fluorobenzyl)uracil]
- Percent Change in Primary Root Length (mungbean): 9.1%
- Percent Change in Primary Root Length of Rice (rice): 6.0%

SMILES: Oc1ccnc(SCCc2ccccc2)n1 [Compound 22]
- Percent Change in Primary Root Length (mungbean): 29.0%
- Percent Change in Primary Root Length of Rice (rice): 5.3%
- Effect on rice root growth, in words (rice): modest enhancements in root growth

SMILES: Oc1ccnc(SC/C=C/c2ccccc2)n1 [Compound 23]
- change in vivo at 10 ppm (tomato): -15.7%
- Percent Change in Primary Root Length of Rice (rice): 2.3%
- Effect on rice root growth, in words (rice): modest enhancements in root growth

SMILES: Oc1ccnc(OCc2ccccc2)n1 [Compound 24, 2-O-Benzyluracil]
- Percent Change in Primary Root Length (mungbean): −1.3%
- Percent Change in Primary Root Length of Rice (rice): 2.2%

SMILES: O=c1cc[nH]c(=O)[nH]1 [Uracil]
- change in vivo at 10 ppm (tomato): -21%
